# From patent US20180044343A1, “BICYCLIC IMIDAZOLO DERIVATIVE” (Sumitomo Dainippon Pharma Co., Ltd., priority 2015, published 2018)
# pIC50: −log10 of the molar value.
# How the values were obtained:
# PDE1B [1] = target: T1, PDE1B (Homo sapiens, UniProt Q01064); assay: In vitro HTRF PDE1 inhibition assay (PDE1B); type: biochemical; conditions: in vitro PDE1B HTRF Assay; read-out: IC50
# PDE1A3 [2] = target: T2, PDE1A3 (Homo sapiens, UniProt P54750); assay: In vitro HTRF PDE1 inhibition assay (PDE1A3); type: biochemical; conditions: PDE1A3, 100 nM cyclic GMP
# Source text: (§1) An exemplary procedure for the in vitro Homogenous Time Resolved Fluorescence assay, which can be used to determine the inhibitory action of compounds of the present invention toward PDE1 or its isoforms, follows.
# (§2) The HTRF PDE1 assay utilized the HTRF (Homogenous Time Resolved Fluorescence) technology, which is based on the competition between unlabeled cyclic nucleotide and cyclic nucleotide labeled with XL665 for the binding to cyclic nucleotide-specific antibody labeled with cryptate. The HTRF signal is thus inversely proportional to the concentration of cyclic nucleotide being measured. Since phosphodiesterases break down cyclic nucleotides, the HTRF signal was used to determine PDE activity.
# (§3) The Cisbio cGMP HTRF assay kit (Cat no: 62GM2PEC) was utilized. Cyclic GMP was diluted to 200 nM in HTRF assay buffer (1 mM CaCl2, 10 mM MgCl2, 10 mM Tris-HCl, 0.1% BSA, pH 7.4). 10 μl of compound or DMSO was diluted in 200 nM cyclic GMP solution and added to wells of a 96 well white plate to give 100 nM cyclic GMP in 1% DMSO final concentration. PDE (1A3, 1B or 1C) was diluted to 2× working concentration in HTRF assay buffer with 2 μg/ml Calmodulin, and 10 μl was added to initiate the reaction. The plate was then incubated for 45 minutes at 27° C. d2-Labelled cyclic GMP and anti-cGMP cryptate were diluted in 50 mM phosphate buffer, 0.8 M KF, 1% Triton X100, 0.2% BSA, pH 7.0. Following incubation 10 μl d2-cGMP, then 10 μl anti cGMP cryptate were added to each well and the plate was incubated for 60 minutes at room temperature. The plate was then read on Perkin Elmer EnVision at 2 different FRET readings ex/em 340 nm/665 nm and 340 nm/615 nm.
# (§4) Compounds having an IC50 of <1 μM are denoted as +++. Compounds having an IC50 of 1-10 μM are denoted as ++. Compounds having an IC50 of 10-100 μM are denoted as +.
# PDE1C [3] = target: T3, PDE1C (Homo sapiens, UniProt Q14123); assay: In vitro HTRF PDE1 inhibition assay (PDE1C); type: biochemical; conditions: 100 nM cyclic GMP
# Source text: as §1, §2, §3, §4
# PDE1B [4] = target: T1, PDE1B; assay: In vitro SPA PDE1 inhibition assay (PDE1B); type: biochemical; conditions: [3H]-cGMP 100 nM
# Method: (§5) The commercially available Scintillation Proximity Assay (SPA) system (Perkinelmer) was used for PDE1 inhibition assays. SPA Yttrium Silicate beads preferentially binds to non-cyclic GMP compared to cyclic GMP (cGMP) in the presence of zinc sulphate, which enables to measure the amount of enzyme reaction product ([^3H]-GMP) by scintillation counting.
# (§6) For PDE1 inhibition assay, 10 μl of the test compounds in 5% dimethyl sulfoxide diluted in SPA assay buffer (1 mM CaCl2, 10 mM MgSO4, 10 mM Tris-HCl, pH 7.4) were placed in a 96-well white microtiter plate, and 20 μl of [^3H]-cGMP solution (100 nM final concentration, Perkinelmer) in SPA assay buffer was added. Assays were initiated by adding 20 μl of PDE (1A3, 1B or 1C) enzyme solution including calmodulin (final concentration 1 μg/ml). After 30 min incubation at 27° C., the reaction was stopped by the addition of 50 μl of a suspension of 10 mg/ml SPA beads in 18 mM ZnSO4. The microtiter plates were settled for 60 min, and then were measured in a TopCount NXT scintillation counter (PerkinElmer). IC50 values were determined from sigmoidal curves by plotting the percentage of PDE activity versus log compound concentration. IC50 was defined as the concentration of the test compounds required to inhibit the cyclic nucleotide hydrolyzing activities of tested PDEs by 50%.
# PDE1A3 [5] = target: T2, PDE1A3; assay: In vitro SPA PDE1 inhibition assay (PDE1A3); type: biochemical; conditions: PDE1A3, [3H]-cGMP 100 nM
# Method: as §5, §6
# PDE1C [6] = target: T3, PDE1C; assay: In vitro SPA PDE1 inhibition assay (PDE1C); type: biochemical; conditions: [3H]-cGMP 100 nM
# Method: as §5, §6
# [7] = Evaluation of bioavailability, PK test in rats; type: in vivo; conditions: rat; 7 week-old SD rats, intravenous vs oral administration, plasma LC-MS
# Method: This test can be used to assess pharmacokinetics of the compounds of the present invention. Each compound of the invention was administered to 7 week-old SD rats intravenously with a solution in saline: 0.1N HCl=9:1 or orally with a 0.5% suspension in methyl cellulose, and each blood sample was collected at an appropriate interval as follows:
# 5, 15, and 30 minutes, and 1, 2, 4, 6, and 24 hours after intravenous administration
# 15 and 30 minutes, and 1, 2, 4, 6, and 24 hours after oral administration
# The plasma was obtained from each blood, and the concentration of each compound in the plasma was measured with an LC-MS to calculate each pharmacokinetic parameter based on the concentration change.
# [8] = Test for drug transportation to brain in rats; type: in vivo; conditions: rat; SD rats, oral, one hour after administration; non-binding drug concentration ratio between brain and plasma
# Source text: Test for Drug Transportation to Brain in Rats
# This test can be used to assess transportation of the compounds of the present invention to the brain. Each compound of the invention was orally administered to 7 week-old SD rats with a 0.5% suspension in methyl cellulose, and each plasma and brain were collected one hour after administration to measure the concentration of each compound in the plasma and the brain with an LC-MS.
# Each protein binding ratio of the compounds in the plasma and the brain was measured by the equilibrium dialysis method.
# The obtained concentrations and protein binding ratios of the compounds in the plasma and the brain can be applied to the following equation to calculate Kp, uu, brain (i.e., non-binding drug concentration ratio between brain and plasma).
# Kp, uu, brain=[Compound concentration in brain×(100−Protein binding ratio in brain (%))/100]/[Compound concentration in plasma×(100−Protein binding ratio in plasma (%))/100]
# [9] = test system: cognitive dysfunction in PCP-treated rats; assay: Novel object recognition test in rats repeatedly treated with phencyclidine (PCP); type: in vivo; conditions: rats given PCP 3 mg/kg i.p. twice a day for 10 days; compound 1 or 3 mg/kg orally 60 minutes before test; compared to PCP+vehicle group
# Method: Since an N-Methyl-D-aspartate receptor antagonist phencyclidine (PCP) has been known to cause schizophrenia-like symptoms including cognitive dysfunction in humans, PCP-treated animals have been widely used as a schizophrenic animal model. Using rats to which PCP was repeatedly administered as a schizophrenic animal model, the improvement in cognitive dysfunction with the compounds of the invention was evaluated in the novel object recognition test. Rats were habituated to the test environment which is a box (50 cm×50 cm×35 cm) with no object inside for 1 hour per day for 3 days. On the test day, rats were again put into the test box with no object inside to habituate themselves for three minutes. The rats were then put into the test box with two identical objects inside and were made to explore inside for three minutes for a training trial. After one minute, they were put into the test box with one of the objects (i.e., the familiar object) that was the same as used in the training trial and another object (i.e., a novel object) inside and were made to explore inside for three minutes for a test trial. Cognitive function was evaluated on the basis of preference for the novel object in the test trial utilizing rats' habit of exploring a novel object longer than a familiar object. Discrimination Index was calculated from the following equation as an index for preference of a novel object.
# Discrimination Index=(Time to explore novel object−Time to explore familiar object)/(Time to explore novel object+Time to explore familiar object)
# T1 sequence (Q01064 whole entry): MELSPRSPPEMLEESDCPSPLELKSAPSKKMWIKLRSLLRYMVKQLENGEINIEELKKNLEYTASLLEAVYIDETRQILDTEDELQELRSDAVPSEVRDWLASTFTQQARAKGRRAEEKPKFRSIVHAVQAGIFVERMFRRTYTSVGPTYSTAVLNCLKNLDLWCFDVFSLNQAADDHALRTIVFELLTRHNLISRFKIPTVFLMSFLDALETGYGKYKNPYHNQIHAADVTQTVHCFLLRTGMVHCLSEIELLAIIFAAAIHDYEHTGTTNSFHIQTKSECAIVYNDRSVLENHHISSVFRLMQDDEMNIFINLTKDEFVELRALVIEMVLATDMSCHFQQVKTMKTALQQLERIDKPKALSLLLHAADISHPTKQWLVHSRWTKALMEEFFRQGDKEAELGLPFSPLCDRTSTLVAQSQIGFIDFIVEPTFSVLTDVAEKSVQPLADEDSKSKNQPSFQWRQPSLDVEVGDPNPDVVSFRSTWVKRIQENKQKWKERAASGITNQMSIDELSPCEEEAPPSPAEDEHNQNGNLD
Structure (SMILES),pIC50 (PDE1B [1]),IC50 (PDE1A3 [2]),IC50 (PDE1C [3]),IC50 (PDE1B [4]),IC50 (PDE1A3 [5]),IC50 (PDE1C [6]),bioavailability [7],Kp uu at 1 h [8],Discrimination Index in novel object recognition test [9]
CCn1c(OCC2CCC(F)(F)CC2)nn2c(C3CCOCC3)ncc2c1=O [Example 1],> 6.00,< 1 µM,< 1 µM,0.088 µM,0.22 µM,0.665 µM,23.3%,0.69,significant increase
"COc1nn2c(C3CCOCC3)ncc2c(=O)n1Cc1ccc(Cl)cc1 [Example 109, 3-(4-chlorobenzyl)-2-methoxy-7-(tetrahydro-2H-pyran-4-yl)imidazo[5,1-f][1,2,4]triazin-4(3H)-one]",> 6.00,< 1 µM,< 1 µM,0.028 µM,0.023 µM,0.057 µM,,1.02,
"COc1nn2c(C3CCOCC3)ncc2c(=O)n1CC1CCC(F)(F)CC1 [Example 115, 3-[(4,4-difluorocyclohexyl)methyl]-2-methoxy-7-(tetrahydro-2H-pyran-4-yl)imidazo[5,1-][1,2,4]triazin-4(3H)-one]",> 6.00,< 1 µM,< 1 µM,0.033 µM,0.034 µM,0.065 µM,13.4%,0.96,significant increase
"Cn1c(OCc2ccc(F)cc2)nn2c(C3CCOCC3)nc(F)c2c1=O [Example 116, 5-Fluoro-2-[(4-fluorobenzyl)oxy]-3-methyl-7-(tetrahydro-2H-pyran-4-yl)imidazo[5,1-f][1,2,4]triazin-4(3H)-one]",> 6.00,< 1 µM,< 1 µM,0.084 µM,0.207 µM,0.771 µM,,,
"CC(C)c1ncc2c(=O)n(C)c(NCc3ccc(Cl)cn3)nn12 [Example 149, 2-{[(5-chloropyridin-2-yl)methyl]amino}-3-methyl-7-(propan-2-yl)imidazo[5,1-f][1,2,4]triazin-4(3H)-one]",> 6.00,< 1 µM,< 1 µM,0.051 µM,0.144 µM,0.425 µM,55.6%,0.3,significant increase
CNc1nn2c(C3CCOCC3)ncc2c(=O)n1Cc1ccccc1 [Example 200],> 6.00,< 1 µM,< 1 µM,0.109 µM,0.133 µM,0.024 µM,,,
"Cc1nn2c(C3CCOCC3)ncc2c(=O)n1Cc1ccccc1 [Example 238, 3-Benzyl-2-methyl-7-(tetrahydro-2H-pyran-4-yl)imidazo[5,1-f][1,2,4]triazin-4(3H)-one]",> 6.00,< 1 µM,< 1 µM,0.145 µM,0.137 µM,0.027 µM,,,

# Further lines, with some results ahead:
pIC50 (PDE1B [1]),IC50 (PDE1A3 [2]),IC50 (PDE1C [3]),IC50 (PDE1B [4]),IC50 (PDE1A3 [5]),IC50 (PDE1C [6]),bioavailability [7],Kp uu at 1 h [8],Structure (SMILES),Discrimination Index in novel object recognition test [9]
> 6.00,< 1 µM,< 1 µM,0.079 µM,0.065 µM,0.125 µM,,,"CCc1nn2c(C3CCOCC3)ncc2c(=O)n1CC1CCC(F)(F)CC1 [Example 239, 3-[(4,4-Difluorocyclohexyl)methyl]-2-ethyl-7-(tetrahydro-2H-pyran-4-yl)imidazo[5,1-f][1,2,4]triazin-4(3H)-one]",
> 6.00,< 1 µM,< 1 µM,0.036 µM,0.113 µM,0.547 µM,30.4%,0.72,"Cn1c(OC[C@H]2CC[C@H](C(F)(F)F)CC2)nn2c(C3CCOCC3)ncc2c1=O [Example 245, 3-methyl-7-(tetrahydro-2H-pyran-4-yl)-2-{[trans-4-(trifluoromethyl)cyclohexyl]methoxy}-imidazo[5,1-][1,2,4]triazin-4(3H)-one]",significant increase
> 6.00,< 1 µM,< 1 µM,0.064 µM,0.289 µM,0.788 µM,51.6%,0.26,"CCO[C@H]1CC[C@H](COc2nn3c(C4CCOCC4)ncc3c(=O)n2C)CC1 [Example 246, 2-[(trans-4-ethoxycyclohexyl)methoxy]-3-methyl-7-(tetrahydro-2H-pyran-4-yl)imidazo[5,1-][1,2,4]triazin-4(3H)-one]",
> 6.00,< 1 µM,< 1 µM,,,,14.3%,,"CCOC[C@H]1CC[C@H](Oc2nn3c(C4CCOCC4)ncc3c(=O)n2C)CC1 [Example 256, 2-{[trans-4-(ethoxymethyl)cyclohexyl]oxy}-3-methyl-7-(tetrahydro-2H-pyran-4-yl)-imidazo-[5,1-][1,2,4]triazin-4(3H)-one]",
> 6.00,< 1 µM,< 1 µM,0.027 µM,0.042 µM,0.194 µM,,,"CCn1c(O[C@H]2CC[C@H](COC)CC2)nn2c(C3CCOCC3)ncc2c1=O [Example 317, 3-ethyl-2-{[trans-4-(methoxymethyl)cyclohexyl]oxy}-7-(tetrahydro-2H-pyran-4-yl)-imidazo[5,1-][1,2,4]triazin-4(3H)-one]",
